Reference: patent publication US6479504B1, “Antagonism of immunostimulatory CpG-oligonucleotides by 4-aminoquinolines and other weak bases” (The University of Iowa Research Foundation, priority 1999, dated 2002)
Read-outs that look alike come from different tables or passages of the source. One block for each compound: values may come before it.

Tests used:
[1] = test system: CpG-ODN effect on thymidine uptake by WEHI 231 B-cells; experiment: Inhibition of CpG-ODN effect on thymidine uptake by WEHI 231 B-cells treated with anti-surface IgM; format: cell-based, murine
Text: The ability of analogs to inhibit an immunostimulatory effect of CpG-ODN was examined. This assay measures the reversal of the protection by CpG-ODN against surface IgM induced killing of WEHI 231 cells.

[2] = test system: WEHI 231 cells; conditions: 1 μM
[3] = test system: WEHI 231 cells; experiment: Confocal microscopy of subcellular distribution of internalized CpG-ODN
[4] = test system: CpG ODN 1760; experiment: DNA thermal melting at 260 nm; format: binding; conditions: 0.3 moles of compound per base, MES with 150 mM KCl, pH 4.4
Procedure: Thermal melting studies were conducted at 260 nm with a Cary spectrophotometer interfaced to a microcomputer. A thermistor fixed into a reference cuvette was used to monitor the temperature. The DNA oligomer was added to 1 mL of buffer (MES with 150 mM KCl, pH 4.4) in 1 cm path length reduced-volume quartz cells. Studies were generally conducted a at concentration of 5×10-^5M bases. […].
Structural nucleic acids with duplex or single-stranded folded conformations generally give sigmoid thermal melting curves characteristic of thermal unfolding of the structures. This unfolding results in a change in the UV spectrum. […]

[5] = test system: WEHI 231 cells; experiment: Uptake of Texas Red-labeled CpG-ODN 1760 by flow cytometry; format: cell-based, murine; conditions: 5 ug/ml Texas Red CpG-ODN 1760
Procedure: FIG. 6. […] The cells were then washed three times, and fixed. The cellular uptake of fluorescent CpG-ODN was estimated by flow cytometry. […] .
After incubation with the additions indicated, the cells were centrifuged and resuspended three times into Hanks buffered salt solution at 37° to remove surface bound ODN, and then resuspended and fixed in 2% paraformaldehyde for analysis in the University of-Iowa Flow Cytometry Facility. 10,000 events were recorded using a Coulter EPICS 753 at 488/600 nm, gating out dead cells. The mean cellular fluorescence was recorded.
The effect of chloroquine and non-fluorescent analogs on the uptake of Texas Red-labeled CpG-ODN 1760 was investigated. […] . Flow cytometry measures cell-associated fluorescence because signals derived from dead cells (which take up ODN avidly, (Tonkinson and Stein, 1994)) are easily gated out of the analysis.

[6] = test system: duplex DNA; conditions: cited from earlier work
[7] = test system: triple-helix DNA; conditions: cited from earlier work
[8] = test system: RNA; conditions: cited from earlier work
[9] = test system: quadruplex DNA; experiment: Quadruplex DNA stabilization; format: binding
Text: Since nucleic acids are involved and several compounds of this study have been shown previously to strongly stabilize a triple-helix DNA structure, it was hypothesized initially that stabilization of the triple helix complex is part of the mechanism. […] In addition, compound 1 binds weakly to RNA (Wilson et al., 1993).

[10] = experimental, ring nitrogen of the quinoline; taken from Strekowski et al., J Med. Chem. 1996; cited from earlier work
[11] = test system: WEHI 231 cells; experiment: Monensin effect on cellular concentration of quinacrine; format: cell-based, murine; conditions: Mus musculus, WEHI231, 0.5 h; 1 uM quinacrine, 30 min; read-out: Monensin concentration for half maximal inhibition of quinacrine uptake and loss of quinacrine from preloaded cells
Procedure: FIG. 5. Monensin: Cells were incubated with 1 uM quinacrine 17 or compound 227 for 30 min. Monensin at the indicated concentration was added either at the same time as the analog or at the end of the 30 min incubation, and the cellular concentration of the analog was determined by fluorescence.
Both effects were half maximal at a monensin concentration of about 1 μM (FIG. 5). Similar results were obtained with other analogs.

[12] = test system: WEHI 231 cells; conditions: mouse
Procedure: Cellular uptake of analogs was estimated by fluorescence. […] The cells were pelleted by centrifugation, and the fluorescence of the supernatant was measured after dilution with the appropriate buffer. The cell pellet was extracted with 1 ml Catrimox-14 (Iowa Biotechnology Corp., Coralville, La.), and the insoluble nucleic acids were removed by centrifugation (16,000×g, 10 min). The resulting extract was diluted with the appropriate buffer, and its fluorescence was measured. […] The fluorescence intensity and spectra were determined with a Farrand Manual Spectrofluorometer at three pH's (3.4, 7.4, 10.0). Subsequent measurements of fluorescence were performed at pH giving the highest yield (Table I).
Standard curves of the fluorescence intensity of each analog in cell culture medium and in the cell extract buffer were prepared, measurements being taken at the pH listed in the table. To examine the uptake of the analogs by cells, WEHI 231 cells were incubated with a range of concentrations of the analogs, and measured the concentration of the analog remaining in the supernatant and the amount of analog in the extract of a cell pellet using the standard curves.
The sources were a=Sigma Chemical Co., b=National Cancer Institute, c=Synthesized by LS, d=Synthesized by FMI. […] ND, not determined.

[13] = concentration required for 50% blockage of the ability of CpG-ODN to rescue WEHI 231 cells from anti-surface IgM-induced cell death, read-out: 50% Efficacy
[14] = concentration for half-maximal inhibition of CpG-ODN effect on thymidine uptake by WEHI 231 B-cells in presence of anti-sIgM, estimated experimental error ± 15%, read-out: EC50
[15] = Mus musculus, WEHI231, concentration for half-maximal inhibition of CpG-ODN effect on thymidine uptake by WEHI 231 B-cells in presence of anti-sIgM, estimated experimental error ± 15%, read-out: EC50
[16] = Mus musculus, WEHI231, concentration required for 50% blockage of the ability of CpG-ODN to rescue WEHI 231 cells from anti-surface IgM-induced cell death, read-out: 50% Efficacy

SMILES: COc1ccc2nc3cc(Cl)ccc3c(NC3CCCCC3Nc3ccnc4cc(Cl)ccc34)c2c1 (racemic) [Ism 9]
EC50 [1, 13]: 105 nM

SMILES: COc1ccc2nc3cc(Cl)ccc3c(NC3CCCCC3Nc3c4ccc(Cl)cc4nc4ccc(OC)cc34)c2c1 (racemic) [Ism 16]
EC50 [1, 13]: 14.5 nM

SMILES: CCN(CC)CCCC(Nc1c2ccc(Cl)cc2nc2ccc(OC)cc12)c1ccncc1 (centres unmarked) [10591-T/2, reference compound]
EC50 [1, 13]: 30.2 nM

SMILES: CCN(CC)CCCC(C)Nc1ccnc2cc(Cl)ccc12 (centres unmarked) [Chloroquine, chloroquine]
Increase in the pH of CpG-ODN-containing compartment [2]: less than 0.01 pH units
Influence on subcellular distribution of internalized CpG-ODN [3]: did not influence
Change in the thermal melting curve of the free CpG-ODN [4]: did not cause any significant change
Suppression of CpG-ODN responses ([1]; 1 μM): completely suppresses
Influence on CpG-ODN uptake [5]: no significant influence

EC50 [1, 14]: 9.1 nM
SMILES: CN(C)CCNc1cc(-c2ccc3ccccc3c2)nc2ccccc12 [Compound 1]
Binding to duplex DNA [6]: binds weakly
Triplex DNA stabilization / binding [7]: one of the best triplex DNA stabilizing agents known to date
Binding to RNA [8]: binds weakly
Stabilization of quadruplex DNA [9]: do not stabilize
pKa [10]: 7.1

EC50 [1, 14]: 11 nM
SMILES: CN(C)CCNc1cc(-c2ccc3ccc4ccccc4c3c2)nc2ccccc12 [Compound 2]

SMILES: CN(C)CCNc1cc(-c2cccc3ccccc23)nc2ccccc12 [Compound 3]
Binding to duplex DNA [6]: does not bind at all
Triplex DNA stabilization / binding [7]: does not promote triplex DNA formation and does not bind to the triple DNA structure
EC50 [1, 14]: 39.8 nM
Stabilization of quadruplex DNA [9]: do not stabilize

EC50 [1, 14]: 12.3 nM
SMILES: Cc1ccc(-c2cc(NCCN(C)C)c3ccccc3n2)cc1 [Compound 4]

EC50 [1, 14]: 6.5 nM
SMILES: CN(C)CCNc1cc(/C=C/c2ccccc2)nc2ccccc12 [Compound 5]

EC50 [1, 14]: 155 nM
SMILES: CN(C)CCNc1cc(-c2ccc(C(F)(F)F)cc2)nc2ccccc12 [Compound 6]

EC50 [1, 14]: 416 nM
SMILES: CN(C)CCN(C)c1cc(-c2ccc3ccccc3c2)nc2ccccc12 [Compound 7]
pKa [10]: 6.2

EC50 [1, 14]: 2400 nM
SMILES: CN(C)CCSc1cc(-c2ccc3ccccc3c2)nc2ccccc12 [Compound 9]
pKa [10]: 4.4

SMILES: CN(C)CCNC(=O)c1cc(-c2ccc3ccccc3c2)nc2ccccc12 [Compound 10]
EC50 [1, 14]: > 10000 nM
pKa [10]: 2.9

EC50 [1, 14]: 4400 nM
SMILES: CN(C)CCCNc1ccnc2ccccc12 [Compound 11]

EC50 [1, 14]: 11.5 nM
SMILES: Cc1ccc(-c2cc(NCCCN(C)C)c3ccccc3n2)cc1 [Compound 12]

EC50 [1, 14]: 11 nM
SMILES: CN(C)CCCNc1cc(-c2ccc3ccccc3c2)nc2ccccc12 [Compound 13]

EC50 [1, 14]: 316 nM
SMILES: CN(C)CCCCNc1ccnc2ccccc12 [Compound 14]

EC50 [1, 14]: 4 nM
SMILES: CN(C)CCCCNc1cc(-c2ccc3ccccc3c2)nc2ccccc12 [Compound 15]

EC50 [1, 14]: 5.9 nM
SMILES: CN(C)CCCCCCNc1cc(-c2ccc3ccccc3c2)nc2ccccc12 [Compound 16]

SMILES: CC(C)(C)OC(=O)NCCNc1cc(-c2ccc3ccccc3c2)nc2ccccc12 [Compound 20]
EC50 [1, 14]: 570 nM

SMILES: CC(CCCC(C)(C)O)Nc1cc(-c2ccc3ccccc3c2)nc2ccccc12 (centres unmarked) [Compound 21]
EC50 [1, 14]: 1150 nM

EC50 [1, 14]: 1000 nM
SMILES: CC(Nc1cc(-c2ccc3ccccc3c2)nc2ccccc12)C(O)c1ccccc1 (centres unmarked) [Compound 22]

SMILES: OCCOCCNc1cc(-c2ccc3ccccc3c2)nc2ccccc12 [Compound 23]
EC50 [1, 14]: 330 nM

EC50 [1, 14]: 170 nM
SMILES: OCCCCCCNc1cc(-c2ccc3ccccc3c2)nc2ccccc12 [Compound 24]

SMILES: O=C(CCCO)NCCCN1CCN(CCCNc2cc(-c3ccc4ccccc4c3)nc3ccccc23)CC1 [Compound 25]
EC50 [1, 14]: 25.1 nM

EC50 [1, 14]: > 10000 nM
SMILES: CCCCc1ccc(Nc2cc(-c3ccc4ccccc4c3)nc3ccccc23)cc1 [Compound 26]

EC50 [1, 14]: 510 nM
SMILES: OCCc1ccc(Nc2cc(-c3ccc4ccccc4c3)nc3ccccc23)cc1 [Compound 27]

EC50 [1, 15]: 320 nM
SMILES: Oc1ccc(Nc2cc(-c3ccc4ccccc4c3)nc3ccccc23)cc1 [Compound 28]

EC50 [1, 15]: 10 nM
SMILES: Oc1c(CN2CCOCC2)cc(Nc2cc(-c3ccc4ccccc4c3)nc3ccccc23)cc1CN1CCOCC1 [Compound 29]

EC50 [1, 15]: 1.5 nM
SMILES: Oc1c(CN2CCCCC2)cc(Nc2cc(-c3ccc4ccccc4c3)nc3ccccc23)cc1CN1CCCCC1 [Compound 30]

EC50 [1, 15]: 1.2 nM
SMILES: Oc1c(CN2CCCC2)cc(Nc2cc(-c3ccc4ccccc4c3)nc3ccccc23)cc1CN1CCCC1 [Compound 31]

EC50 [1, 15]: 0.24 nM
SMILES: CN1CCN(Cc2cc(Nc3cc(-c4ccc5ccccc5c4)nc4ccccc34)cc(CN3CCN(C)CC3)c2O)CC1 [Compound 32]

SMILES: CCN(CCO)CCCC(C)Nc1ccnc2cc(Cl)ccc12 (centres unmarked) [Hydroxychloroquine, reference compound]
EC50 [1, 16]: 407 nM

SMILES: CN(C)CCNc1cc(-c2ccc3ccccc3c2)nc2ccccc12 [LS-8]
EC50 [1, 13]: 9.5 nM

SMILES: CCCCN(CCCC)CCCNc1cc(-c2ccc3ccccc3c2)nc2ccccc12 [MHQ-6]
EC50 [1, 13]: 16.3 nM

SMILES: CC[C@@]1([C@@H]2O[C@@H]([C@H]3O[C@@](O)(CO)[C@H](C)C[C@@H]3C)C[C@@H]2C)CC[C@H]([C@]2(C)CC[C@]3(C[C@H](O)[C@@H](C)[C@@H]([C@@H](C)[C@@H](OC)[C@H](C)C(=O)O)O3)O2)O1 [Monensin]
EC50 [11]: ~1000 nM

SMILES: CN(C)CCCCCCNc1cc(-c2ccc3ccccc3c2)nc2ccccc12 [OZ-123]
EC50 [1, 13]: 5.9 nM

SMILES: CCN(CC)CCCC(C)Nc1c2ccc(Cl)cc2nc2ccc(OC)cc12 (centres unmarked) [Quinacrine]
Cellular uptake ratio [12]: 601
Change in the thermal melting curve of the free CpG-ODN [4]: did not cause any significant change
EC50 [1, 16]: 10.2 nM

SMILES: C=C[C@H]1C[N@@]2CC[C@H]1C[C@H]2[C@H](O)c1ccnc2ccc(OC)cc12 [Quinine, reference compound]
EC50 [1, 16]: 23000 nM
